Data on 16 molecules can be found in patent publication US20220306623A1, “PYRIDYL OR PYRIMIDYL MTOR KINASE INHIBITORS” (GLAXOSMITHKLINE INTELLECTUAL PROPERTY DEVELOPMENT LIMITED, priority 2019, published 2022).

Like-named read-outs stand apart in the source and are kept apart here.

For the test, the target named is T1, mTOR (Homo sapiens, UniProt P42345).
T1 construct: capturing of endogenously expressed target proteins from cell extracts by a bead-immobilized capturing ligand; endogenous in cells; host or cells: HuT-78 cells (ECACC 88041901), cell lysate
The experiment in a line: mTOR kinobeads competition-binding assay. The following applies: HuT-78 cell lysate. As for the experimental part:
The affinity of test compounds for mTOR was determined in the mTOR kinobeads assay. This is a competition-binding assay based on the capturing of endogenously expressed target proteins from cell extracts by a bead-immobilized capturing ligand in the presence of the test compound.
HuT-78 cells (European Collection of Authenticated Cell Cultures, 88041901) were cultured according to vendor's instructions. Frozen cell pellets were homogenized in 3× pellet volumes lysis buffer (50 mM Tris-HCl, 0.4% (v/v) Igepal-CA630, 5% glycerol, 150 mM NaCl, 1.5 mM MgCl2, 25 mM NaF, 1 mM sodium vanadate, 1 mM DTT, pH 7.5, supplemented with EDTA-free protease inhibitor tablet (Roche)). The sample was dispersed using a Dounce homogenizer, kept rotating for 30 min at 4° C., and centrifuged for 10 min at 20000 gat 4° C. The supernatant was centrifuged again for 1 h at 145 000 g. The protein concentration was determined by Bradford assay (BioRad), aliquots were snap frozen in liquid nitrogen and stored at −80° C.
The capturing matrices were generated by derivatizing N-hydroxysuccinimide (NHS) activated Sepharose 4 beads (GE Healthcare) with the functionalized ligands Compound A and Compound C at a ligand density of 5 mM. Remaining NHS-groups were blocked with ethanolamine.
For the mTOR kinobeads assay the matrices were combined in a 1:1 ratio and equilibrated in DP buffer (50 mM Tris-HCl (pH 7.5), 0.4% (v/v) Igepal-CA630, 5% (v/v) glycerol, 150 mM NaCl, 1.5 mM MgCl2, 25 mM NaF, 1 mM Na3VO4, 1 mM dithiothreitol). All steps of the mTOR kinobeads assay were performed at 4° C. or on ice. The cell lysate was diluted with DP buffer to a final concentration of 5 mg/ml and a final detergent concentration of 0.4% (v/v) Igepal-CA630. For the assay 250 μg cell lysate and 2.5 μl capturing matrix per well (final assay volume: 75 μl) were incubated in the presence of test compounds in a 384-well filter plate (MultiScreenHTS HV Filter Plate, 0.45 μm, MZHVNOW50, Merck Millipore). Each plate contained 16 positive (100 μM Compound B) and 16 negative (2% v/v DMSO) control wells. Compounds were tested in a concentration-response applying 1:3 or 1:4 dilution steps for in total 11 data points. DMSO concentration was 2% (v/v). After 2 h incubation on an overhead shaker (Roto-Shake Genie, Scientific Industries Inc.) at 4° C. the non-bound fraction was removed by washing the beads with DP buffer. Proteins retained on the beads were eluted in SDS sample buffer (200 mM Tris (pH 7.4), 250 mM Trizma Base, 4% (w/v) SDS, 20% (v/v) glycerol, 0.01% (w/v) bromophenol blue, 50 mM dithiothreitol) into a collection plate (384 well polypropylene microplate, V-shape, Greiner, 781 280). Eluates were spotted on nitrocellulose membranes (400 nl per spot) using an automated pin-tool liquid transfer (Biomek FX, Beckman). After drying, the membranes were rehydrated in 20% (v/v) ethanol and blocked by incubation with Odyssey blocking buffer (LICOR, 927-40000) for 1 h at room temperature. Blocked membranes were incubated overnight at 25° C. with Odyssey blocking buffer supplemented with a specific anti-mTOR antibody (Cell Signaling, 2972; 1:500) and 0.4% TWEEN-20. Then the membranes were washed in PBST buffer and incubated for 60 minutes at room temperature with the detection antibody (IRDye™ labelled antibody from LI-COR) diluted in Odyssey blocking buffer (LICOR 927-40000) containing 0.2% TWEEN-20. Then the membranes were washed with PBST and finally rinsed twice with PBS buffer to remove residual Tween-20. The membranes were then scanned with the Odyssey® Infrared Imaging System (LI-COR Biosciences). Fluorescence signals were recorded and analyzed according to the instructions of the manufacturer. Concentration response curves were computed with the software Activity Base. All data were normalized to the mean of 16 high (negative control) and 16 low (positive control) control wells on each plate. […]

The mark [1] stands for this setting: bead-immobilized capturing ligand, 2 h at 4° C., mean of multiple experiments, read-out: mean pIC50, mTOR kinobeads assay (converted).
Setting [2] is: selected compounds, mean, read-out: mTOR (mean pIC50 values when tested in the mTOR binding assay) (converted).

`CC[C@H]1COCC(=O)N1c1cc(C2(S(C)(=O)=O)CCOCC2)cc(-c2ccc3[nH]c(CO)cc3n2)n1` [Example 26]: the IC50 under setting [1] was not above 0.316 nM.
As for `CC[C@H]1COCC(=O)N1c1cc(CS(C)(=O)=O)cc(-c2ccc3[nH]c(C)cc3n2)n1` [Example 24, (S)-5-ethyl-4-(6-(2-methyl-1H-pyrrolo[3,2-b]pyridin-5-yl)-4-((methylsulfonyl)methyl)pyridin-2-yl)morpholin-3-one], the IC50 is not above 1.26 nM under setting [1] and 0.501 nM under setting [2].
As to `CC[C@H]1COCCN1c1cc(C2(S(C)(=O)=O)CCOCC2)nc(-c2ccc3[nH]c(C)cc3n2)n1` [Example 13, (3S)-3-ethyl-4-[6-(4-methanesulfonyloxan-4-yl)-2-{2-methyl-1H-pyrrolo[3,2-b]pyridin-5-yl}pyrimidin-4-yl]morpholine], under setting [1], the IC50 was not above 1.26 nM.
Consider `CC[C@H]1COCCN1c1cc(CS(C)(=O)=O)nc(-c2ccc3[nH]c(CNC)cc3n2)n1` [Example 1, [(5-{4-[(3S)-3-ethylmorpholin-4-yl]-6-(methanesulfonylmethyl)pyrimidin-2-yl}-1H-pyrrolo[3,2-b]pyridin-2-yl)methyl](methyl)amine], for which the IC50 under setting [1] was not above 1.26 nM and the IC50 under setting [2] is 0.794 nM.
Consider `CC[C@H]1COCC(=O)N1c1cc(C2(S(C)(=O)=O)CCOCC2)cc(-c2ccc3[nH]c(C)cc3n2)n1` [Example 25, (S)-5-ethyl-4-(6-(2-methyl-1H-pyrrolo[3,2-b]pyridin-5-yl)-4-(4-(methylsulfonyl)tetrahydro-2H-pyran-4-yl)pyridin-2-yl)morpholin-3-one], for which the IC50 under setting [1] is not above 1.26 nM.
Still for that read-out and setting: as for `CC[C@H]1COCCN1c1cc(CS(=O)(=O)N(C)C)nc(-c2ccc3[nH]c(CO)cc3n2)n1` [Example 9, 1-{6-[(3S)-3-ethylmorpholin-4-yl]-2-[2-(hydroxymethyl)-1H-pyrrolo[3,2-b]pyridin-5-yl]pyrimidin-4-yl}-N,N-dimethylmethanesulfonamide], the figure is not above 0.316 nM; as for `CC[C@H]1COCCN1c1cc(CS(N)(=O)=O)cc(-c2ccc3[nH]c(C)cc3n2)n1` [Example 23, (S)-(2-(3-ethylmorpholino)-6-(2-methyl-1H-pyrrolo[3,2-b]pyridin-5-yl)pyridin-4-yl)methanesulfonamide], not above 1.26 nM.
On to `CC[C@H]1COCCN1c1cc(CS(=O)(=O)N(C)C)nc(-c2ccc3[nH]c(CNC)cc3n2)n1` [Example 16, 1-{6-[(3S)-3-ethylmorpholin-4-yl]-2-{2-[(methylamino)methyl]-1H-pyrrolo[3,2-b]pyridin-5-yl}pyrimidin-4-yl}-N,N-dimethylmethanesulfonamide], for which the IC50 is not above 1.26 nM under setting [1] and 0.631 nM under setting [2].
For `CCc1cc2nc(-c3nc(CS(C)(=O)=O)cc(N4C(=O)COC[C@@H]4CC)n3)ccc2[nH]1` [Example 15, (5S)-5-ethyl-4-(2-{2-ethyl-1H-pyrrolo[3,2-b]pyridin-5-yl}-6-(methanesulfonylmethyl)pyrimidin-4-yl)morpholin-3-one] the same measures were not above 0.316 nM and 0.316 nM.
With `CC[C@H]1COCCN1c1cc(CS(=O)(=O)NC)nc(-c2ccc3[nH]c(CO)cc3n2)n1` [Example 10, 1-{6-[(3S)-3-ethylmorpholin-4-yl]-2-[2-(hydroxymethyl)-1H-pyrrolo[3,2-b]pyridin-5-yl]pyrimidin-4-yl}-N-methylmethanesulfonamide], the IC50 under setting [1] was not above 0.0794 nM.
Turning to `CC[C@H]1COCC(=O)N1c1cc(CS(C)(=O)=O)nc(-c2ccc3[nH]c(C)cc3n2)n1` [Example 14, (5S)-5-ethyl-4-[6-(methanesulfonylmethyl)-2-{2-methyl-1H-pyrrolo[3,2-b]pyridin-5-yl}pyrimidin-4-yl]morpholin-3-one], the IC50 under setting [1] was not above 0.2 nM and the IC50 under setting [2] is 0.2 nM.
As for `CC[C@H]1COCCN1c1cc(C2(S(C)(=O)=O)CCNCC2)cc(-c2ccc3[nH]c(C)cc3n2)n1` [Example 18, (S)-3-ethyl-4-(6-(2-methyl-1H-pyrrolo[3,2-b]pyridin-5-yl)-4-(4-(methylsulfonyl)piperidin-4-yl)pyridin-2-yl)morpholine], the IC50 under setting [2] is 6.31 nM.
With `CC[C@H]1COCCN1c1cc(CS(N)(=O)=O)nc(-c2ccc3[nH]c(CNC)cc3n2)n1` [Example 6, {6-[(3S)-3-ethylmorpholin-4-yl]-2-{2-[(methylamino)methyl]-1H-pyrrolo[3,2-b]pyridin-5-yl}pyrimidin-4-yl}methanesulfonamide], the IC50 under setting [1] is not above 1.26 nM.
`CC[C@H]1COCC(=O)N1c1cc(CS(C)(=O)=O)cc(-c2ccc3[nH]c(CO)cc3n2)n1` [Example 27]: the IC50 under setting [1] was not above 1.26 nM.
Still for that read-out and setting: as for `CC[C@H]1COCCN1c1cc(C2(S(C)(=O)=O)CCOCC2)nc(-c2ccc3[nH]c(CO)cc3n2)n1` [Example 4, (5-{4-[(3S)-3-ethylmorpholin-4-yl]-6-(4-methanesulfonyloxan-4-yl)pyrimidin-2-yl}-1H-pyrrolo[3,2-b]pyridin-2-yl)methanol], the figure is not above 1.26 nM; as for `CC[C@H]1COCCN1c1cc(CS(C)(=O)=O)nc(-c2ccc3[nH]c(CO)cc3n2)n1` [Example 2, (S)-(5-(4-(3-ethylmorpholino)-6-((methylsulfonyl)methyl)pyrimidin-2-yl)-1H-pyrrolo[3,2-b]pyridin-2-yl)methanol], not above 1.26 nM.
